Laboratory results as given in PubChem BioAssay (NCI).
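These data come from cells grown in 96-well plates and exposed to compound for 48 hours at five concentrations. TGI: concentration producing complete growth inhibition.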

Legend:
Assay in all cases: NCI anticancer screen, dose series, 48 h
COLO 205 colon = test system: COLO 205 colon
BT-549 breast = test system: BT-549 breast
IGROV1 ovarian = test system: IGROV1 ovarian
DU-145 prostate = test system: DU-145 prostate
UO-31 renal = test system: UO-31 renal
HS 578T breast = test system: HS 578T breast
NCI-H23 lung = test system: NCI-H23 lung
LOX IMVI melanoma = test system: LOX IMVI melanoma
EKVX NSCLC = test system: EKVX NSCLC
HT29 colon = test system: HT29 colon
MOLT-4 leukemia = test system: MOLT-4 leukemia
NCI-H226 lung = test system: NCI-H226 lung
TK-10 renal = test system: TK-10 renal
SW-620 colon = test system: SW-620 colon
HL-60(TB) leukemia = test system: HL-60(TB) leukemia
HCT-116 colon = test system: HCT-116 colon
HOP-92 NSCLC = test system: HOP-92 NSCLC
OVCAR-4 ovarian = test system: OVCAR-4 ovarian
SK-MEL-2 melanoma = test system: SK-MEL-2 melanoma
SN12C renal = test system: SN12C renal
HOP-62 NSCLC = test system: HOP-62 NSCLC
A549 NSCLC = test system: A549 NSCLC
MDA-MB-231 breast = test system: MDA-MB-231 breast
RXF 393 renal = test system: RXF 393 renal
SK-OV-3 ovarian = test system: SK-OV-3 ovarian
MCF7 breast = test system: MCF7 breast
M14 melanoma = test system: M14 melanoma
SR leukemia = test system: SR leukemia
UACC-62 melanoma = test system: UACC-62 melanoma
RPMI-8226 leukemia = test system: RPMI-8226 leukemia
CCRF-CEM leukemia = test system: CCRF-CEM leukemia
MALME-3M melanoma = test system: MALME-3M melanoma
U251 CNS = test system: U251 CNS
SK-MEL-5 melanoma = test system: SK-MEL-5 melanoma
UACC-257 melanoma = test system: UACC-257 melanoma
T-47D breast = test system: T-47D breast
HCT-15 colon = test system: HCT-15 colon
MDA-MB-435 = test system: MDA-MB-435
NCI/ADR-RES ovarian = test system: NCI/ADR-RES ovarian
ACHN renal = test system: ACHN renal
MDA-N = test system: MDA-N
SNB-75 CNS = test system: SNB-75 CNS
OVCAR-3 ovarian = test system: OVCAR-3 ovarian
CAKI-1 renal = test system: CAKI-1 renal
PC-3 prostate = test system: PC-3 prostate
SF-295 CNS = test system: SF-295 CNS
SK-MEL-28 melanoma = test system: SK-MEL-28 melanoma
SF-539 CNS = test system: SF-539 CNS
HCC-2998 colon = test system: HCC-2998 colon
786-0 renal = test system: 786-0 renal
SNB-19 CNS = test system: SNB-19 CNS
NCI-H522 lung = test system: NCI-H522 lung
OVCAR-5 ovarian = test system: OVCAR-5 ovarian
SF-268 CNS = test system: SF-268 CNS
OVCAR-8 ovarian = test system: OVCAR-8 ovarian
K-562 leukemia = test system: K-562 leukemia
KM12 colon = test system: KM12 colon
NCI-H460 lung = test system: NCI-H460 lung
A498 renal = test system: A498 renal

Compound: CN(C)c1ccc(/C=C2/NC(=S)NC2=O)cc1
- TGI (COLO 205 colon): > 100 µM
- TGI (BT-549 breast): > 100 µM
- TGI (IGROV1 ovarian): > 100 µM
- TGI (DU-145 prostate): > 100 µM
- TGI (UO-31 renal): > 100 µM
- TGI (HS 578T breast): > 100 µM
- TGI (NCI-H23 lung): > 100 µM
- TGI (LOX IMVI melanoma): > 100 µM
- TGI (EKVX NSCLC): > 100 µM
- TGI (HT29 colon): > 100 µM
- TGI (MOLT-4 leukemia): > 100 µM
- TGI (NCI-H226 lung): > 100 µM
- TGI (TK-10 renal): > 100 µM
- TGI (SW-620 colon): > 100 µM
- TGI (HL-60(TB) leukemia): 51 µM
- TGI (HCT-116 colon): > 100 µM
- TGI (HOP-92 NSCLC): > 100 µM
- TGI (OVCAR-4 ovarian): > 100 µM
- TGI (SK-MEL-2 melanoma): > 100 µM
- TGI (SN12C renal): > 100 µM
- TGI (HOP-62 NSCLC): > 100 µM
- TGI (A549 NSCLC): > 100 µM
- TGI (MDA-MB-231 breast): > 100 µM
- TGI (RXF 393 renal): > 100 µM
- TGI (SK-OV-3 ovarian): > 100 µM
- TGI (MCF7 breast): > 100 µM
- TGI (M14 melanoma): > 100 µM
- TGI (SR leukemia): > 100 µM
- TGI (UACC-62 melanoma): > 100 µM
- TGI (RPMI-8226 leukemia): > 100 µM
- TGI (CCRF-CEM leukemia): 80.8 µM
- TGI (MALME-3M melanoma): > 100 µM
- TGI (U251 CNS): > 100 µM
- TGI (SK-MEL-5 melanoma): > 100 µM
- TGI (UACC-257 melanoma): > 100 µM
- TGI (T-47D breast): > 100 µM
- TGI (HCT-15 colon): > 100 µM
- TGI (MDA-MB-435): > 100 µM
- TGI (NCI/ADR-RES ovarian): > 100 µM
- TGI (ACHN renal): > 100 µM
- TGI (MDA-N): > 100 µM
- TGI (SNB-75 CNS): > 100 µM
- TGI (OVCAR-3 ovarian): > 100 µM
- TGI (CAKI-1 renal): > 100 µM
- TGI (PC-3 prostate): > 100 µM
- TGI (SF-295 CNS): > 100 µM
- TGI (SK-MEL-28 melanoma): > 100 µM
- TGI (SF-539 CNS): > 100 µM
- TGI (HCC-2998 colon): > 100 µM
- TGI (786-0 renal): > 100 µM
- TGI (SNB-19 CNS): > 100 µM
- TGI (NCI-H522 lung): > 100 µM
- TGI (OVCAR-5 ovarian): > 100 µM
- TGI (SF-268 CNS): > 100 µM
- TGI (OVCAR-8 ovarian): > 100 µM

Compound: CCCC/C=C/C/C=C/CCCCCCCCC(=O)OCC1CCCN2CCCCC12 (stereo unspecified)
- TGI (COLO 205 colon): > 100 µM
- TGI (BT-549 breast): > 100 µM
- TGI (DU-145 prostate): > 100 µM
- TGI (UO-31 renal): > 100 µM
- TGI (HS 578T breast): > 100 µM
- TGI (NCI-H23 lung): > 100 µM
- TGI (LOX IMVI melanoma): > 100 µM
- TGI (EKVX NSCLC): > 100 µM
- TGI (HT29 colon): > 100 µM
- TGI (MOLT-4 leukemia): > 100 µM
- TGI (NCI-H226 lung): > 100 µM
- TGI (TK-10 renal): > 100 µM
- TGI (SW-620 colon): > 100 µM
- TGI (K-562 leukemia): > 100 µM
- TGI (HL-60(TB) leukemia): > 100 µM
- TGI (HCT-116 colon): > 100 µM
- TGI (HOP-92 NSCLC): > 100 µM
- TGI (OVCAR-4 ovarian): > 100 µM
- TGI (SK-MEL-2 melanoma): > 100 µM
- TGI (SN12C renal): > 100 µM
- TGI (HOP-62 NSCLC): > 100 µM
- TGI (KM12 colon): > 100 µM
- TGI (A549 NSCLC): > 100 µM
- TGI (MDA-MB-231 breast): > 100 µM
- TGI (RXF 393 renal): > 100 µM
- TGI (SK-OV-3 ovarian): > 100 µM
- TGI (MCF7 breast): > 100 µM
- TGI (NCI-H460 lung): > 100 µM
- TGI (M14 melanoma): > 100 µM
- TGI (UACC-62 melanoma): > 100 µM
- TGI (RPMI-8226 leukemia): > 100 µM
- TGI (CCRF-CEM leukemia): > 100 µM
- TGI (MALME-3M melanoma): > 100 µM
- TGI (U251 CNS): > 100 µM
- TGI (SK-MEL-5 melanoma): > 100 µM
- TGI (UACC-257 melanoma): > 100 µM
- TGI (T-47D breast): 88.6 µM
- TGI (HCT-15 colon): > 100 µM
- TGI (MDA-MB-435): > 100 µM
- TGI (NCI/ADR-RES ovarian): > 100 µM
- TGI (A498 renal): > 100 µM
- TGI (ACHN renal): > 100 µM
- TGI (MDA-N): > 100 µM
- TGI (SNB-75 CNS): > 100 µM
- TGI (OVCAR-3 ovarian): > 100 µM
- TGI (CAKI-1 renal): > 100 µM
- TGI (PC-3 prostate): > 100 µM
- TGI (SF-295 CNS): > 100 µM
- TGI (SK-MEL-28 melanoma): > 100 µM
- TGI (SF-539 CNS): > 100 µM
- TGI (HCC-2998 colon): > 100 µM
- TGI (786-0 renal): > 100 µM
- TGI (SNB-19 CNS): > 100 µM
- TGI (OVCAR-5 ovarian): > 100 µM
- TGI (SF-268 CNS): > 100 µM
- TGI (OVCAR-8 ovarian): > 100 µM
